Our source for the EC50 values is BindingDB's records for doi:10.1016/j.bmc.2006.09.058 (Purdue University, 2007).

This assay deals with Sodium-dependent serotonin transporter (Homo sapiens, UniProt P31645, W103C). Put plainly: Decrease in [3H]5-HT uptake at human SERT W103C mutant transfected in HEK293 cells.

Usually EC50 stands for the concentration that produces a half-maximal response. A high value points to weaker potency.

Sequence of Sodium-dependent serotonin transporter (P31645 whole entry W103C): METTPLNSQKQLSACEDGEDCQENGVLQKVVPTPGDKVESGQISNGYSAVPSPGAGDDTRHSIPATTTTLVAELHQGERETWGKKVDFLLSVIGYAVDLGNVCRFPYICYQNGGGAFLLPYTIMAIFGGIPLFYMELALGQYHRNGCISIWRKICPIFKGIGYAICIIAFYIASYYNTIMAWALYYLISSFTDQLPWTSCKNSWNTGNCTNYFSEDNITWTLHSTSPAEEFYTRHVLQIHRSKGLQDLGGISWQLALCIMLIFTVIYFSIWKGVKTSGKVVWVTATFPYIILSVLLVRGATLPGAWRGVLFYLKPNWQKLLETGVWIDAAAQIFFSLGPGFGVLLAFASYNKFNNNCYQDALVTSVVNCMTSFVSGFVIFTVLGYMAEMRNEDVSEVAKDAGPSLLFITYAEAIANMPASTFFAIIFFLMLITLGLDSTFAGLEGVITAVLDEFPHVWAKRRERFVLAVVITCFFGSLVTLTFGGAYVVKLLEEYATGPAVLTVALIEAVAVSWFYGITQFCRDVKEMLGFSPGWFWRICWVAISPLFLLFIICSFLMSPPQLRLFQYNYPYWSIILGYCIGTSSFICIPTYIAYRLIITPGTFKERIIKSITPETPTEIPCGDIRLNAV

Turning to `C[n+]1ccc(-c2ccc(SS(C)(=O)=O)cc2)cc1`, the EC50 amounted to 31.6 µM.
The compound `C[N+](C)(C)CCSS(C)(=O)=O` gave an EC50 of 501 µM.
